Results from patent publication US20240117005A1, “NOVEL BICYCLIC PEPTIDES” (THE COUNCIL OF THE QUEENSLAND INSTITUTE OF MEDICAL RESEARCH, priority 2021, published 2024).
No end group written: not given here. *: point of attachment. Myristyl = CCCCCCCCCCCCCC*

What was measured:
[1] = tested on: 4T1 TNBC metastatic cancer cells; assay: 4T1 model of metastatic breast cancer in mice; format: in vivo, mouse
Protocol: 4T1 Gold standard immunotherapy resistant mouse model mice obtained from the ARC, Perth and mice were inoculated with 4T1 TNBC metastatic cancer cells. DL-2 is supplied lyophilised in glass vials and was reconstituted using sodium chloride injection BP (0.9% saline) to make a stock solution of 10 mg/mL using a needle/syringe, DL-2 was mixed by inversion. Animals were then injected by intraperitoneal injection at 10, 20 or 30 mg/kg daily and rested over the weekend. Mice were monitored over time for body weight and tumour volume.
4T1 Gold standard immunotherapy resistant mouse model mice obtained from the ARC, Perth and mice were inoculated with 4T1 TNBC metastatic cancer cells. DL-2 or DL-2-D is supplied lyophilised in glass vials was reconstituted using sodium chloride injection BP (0.9% saline) to make a stock solution of 10 mg/mL using a needle/syringe, DL-2 was mixed by inversion. Animals were then injected by intraperitoneal injection and mice were monitored over time for body weight and tumour volume for DL-2 at 20 mg/kg every second day with resting over the weekend in conjunction with αPD1 or isotype control (10 mg/kg).
DL-2-D was mixed by inversion. Animals were then injected by intraperitoneal injection and mice were monitored over time for body weight and tumour volume for DL-2-D at a concentration of 20 mg/kg every two days (identical regime to αPD1) in conjunction with αPD1 or isotype control (10 mg/kg).

MDA-MB-231-Br cells = assay: WST-1 cell proliferation assay, MDA-MB-231-Br; format: cell-based, human
[2] = tested on: CSV, ABCB5, EGFR, FOXQ1, E-Cadherin in MDA-MB-231-Br cells; assay: High resolution digital pathology of mesenchymal/epithelial markers, MDA-MB-231-Br; format: cell-based, human
Protocol: To examine the signature of CD8, CSV, EGFR, ABCB5, FOXQ1, commercial PD-L1-28-8, nuclear PD-L1, cytoplasmic PDL1 in MDA-MB-231 TNBC cells/TNBC brain cancer clone cells (untreated or treated with bicyclic inhibitors targeting nuclear PD-L1-PTM1). MDA-MB-231/MDA-MB-231-Br cells were permeabilised by incubating with 0.5% Triton X-100 for 15 min, blocked with 1% BSA in PBS and were probed with either CSV (Mouse host), CD8 (mouse host), EGFR (Rabbit host), ABCB5 (Goat Host), ALDH1A (Rabbit Host), NODAL (Goat Host), nuclear PDL1 (rabbit host), cytoplasmic PD-L1 (rabbit host) visualized with a donkey anti-rabbit AF 488, anti-mouse AF 568, donkey anti-goat 647. […] Digital images were analyzed using automated ASI software (Applied Spectral Imaging, Carlsbad, CA) to determine the distribution and intensities automatically with automatic thresholding and background correction of the average nuclear fluorescence intensity (NFI), allowing for the specific targeting of expression of proteins of interest. Digital images were also analysed using ImageJ software (ImageJ, NIH, Bethesda, MD, USA) to determine the total cell fluorescence or cell surface only fluorescence for non-permeabilised cells. Digital images were analysed using ImageJ software (ImageJ, NIH, Bethesda, MD, USA) to determine either the Total Nuclear Fluorescent Intensity (TNFI), the Total Cytoplasmic Fluorescent Intensity (TCFI). […]

[3] = tested on: metastatic initiating cells (MICs) from stage IV metastatic cancer patients; assay: Pre-clinical treatment of MICs from patient liquid biopsies; format: cell-based, human; details: cancer cells from NSCLC, TNBC and melanoma patients
From the text: Mesenchymal MICs were isolated from TNBC, lung cancer and melanoma patient liquid biopsies (scored for RECIST v1.1 for immunotherapy/therapeutic resistance or responsiveness (Complete Response, Partial Response or Progressive Disease) and pre-clinically screened with either vehicle control or the nuclear PDL1 inhibitor, DL-2. Samples were fixed and immunofluorescence microscopy performed on these cells with primary antibodies targeting CSV, PDL1-PTM1 (acetylated nuclear PDL1), ALDH1A1 and ABCB5. Graph represents the CFI values for CSV, NFI for PDL1- PTM1, ALDH1A1 and FI for ABCB5 measured using the ASI Digital pathology automated system to select the nucleus minus background (n≥40 cells/sample/5 patients a group).

CSC = CSC inhibition (Table 10 summary); format: cell-based; details: linear peptide derivatives; change stated relative to prototype PDL1-L1

| Compound | body weight ([1]; DL-2 and anti-PD1 combination therapy) | primary tumour volume ([1]; DL-2 in combination with an anti-PD1 antibody, 10 day treatment period) | lung, liver or spleen weights ([1]; DL-2 in combination with anti-PD1) | body weight ([1]; DL-2 monotherapy) | lung, liver or spleen weights ([1]; DL-2 monotherapy) | primary tumour volume ([1]; DL-2 monotherapy 20 and 30 mg/kg i.p., eight day treatment period) | tumour weight ([1]; DL-2 monotherapy 20 and 30 mg/kg, after 8 days) | inhibition of proliferation (MDA-MB-231-Br cells; WST-1) | potency of proliferation inhibition relative to DL-1 (MDA-MB-231-Br cells; higher potency than DL-1) | expression of the epithelial marker E-Cadherin [2] | mesenchymal stem-like resistant protein markers (CSV, ABCB5, EGFR, FOXQ1) ([2]; vs vehicle control) | expression of ABCB5, ALDH1A1 and PDL1-PTM1 in MICs [3] | Potency (CSC inhibition) (CSC) |
| --- | --- | --- | --- | --- | --- | --- | --- | --- | --- | --- | --- | --- | --- |
| CCCCCCCCCCCCCC(=O)NC(C)C(=O)NC1CSCc2cc3cc(c2)CSC[C@H](NC(=O)[C@H](Cc2ccccc2)NC(=O)[C@H](C(C)CC)NC(=O)[C@H](Cc2ccccc2)NC(=O)[C@H]([C@@H](C)O)NC(=O)C(CC(C)C)NC1=O)C(=O)N[C@@H](CCCNC(C)=N)C(=O)N[C@@H](CC(C)C)C(=O)N[C@@H](CCCNC(=N)N)C(=O)N[C@@H](CCCCN)C(=O)NCC(=O)N[C@@H](CCCNC(=N)N)C(=O)NC(C(=O)N[C@@H](CCSC)C(=O)NC(CCSC)C(=O)N[C@@H](CC(=O)O)C(=O)NC(C(=O)N[C@@H](CCCCN)C(=O)NC(CCCCN)C(=O)O)C(C)C)CSC3 (mixture of isomers) [DL-2] | No change | significantly reduces | does not alter | No change | does not alter | reduces | significantly reduced | able to inhibit proliferation | 2-3 fold | able to induce expression | significantly inhibit | inhibited expression | – |
| LTFIFRLRKGRMMDVKK (Myristyl-LTFIFRLRKGRMMDVKK) [PDL1-L1, Myristyl- linear peptide, prototype] | – | – | – | – | – | – | – | – | – | – | – | – | Weak |
